The record followed here is patent US10464947B2 (Incyte Corporation, priority 2013, dated 2019).

pIC50: −log10 of the molar value.

A word on the pIC50: it is −log10 of the IC50, conventionally taken in molar units.

For one test, the system named is KMS.12.BM cells. Briefly: KMS.12.BM Cell Viability Assay (Example B1). Particulars: Homo sapiens, 72 h, 3 days, Cell Titer-GLO, read-out: KMS cellular IC50. Format: cell-based, human. A digest of the protocol:
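KMS.12.BM human myeloma cells, 5000 cells/well in RPMI with 10% FBS, exposed to a compound concentration range for 3 days. Viable cells measured by ATP-based Cell Titer-GLO luminescence after 10 min at room temperature.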
In general terms: ATP-based viability assays read luminescence as a measure of living cells.
In the case of `CCC(=O)NC1CN(c2nc3ccc(-c4c(C)noc4C)c4c3n2[C@@H](c2ccccn2)CO4)C1` [Example 232, N-{1-[(4S)-7-(3,5-dimethylisoxazol-4-yl)-4-pyridin-2-yl-4,5-dihydroimidazo[1,5,4-de][1,4]benzoxazin-2-yl]azetidin-3-yl}propanamide], the pIC50 is > 6.00.
`Cc1noc(C)c1-c1ccc2nc(N3CC(NC(=O)C(C)C)C3)n3c2c1OC[C@@H]3c1ccccn1` [Example 233, N-{1-[(4S)-7-(3,5-dimethylisoxazol-4-yl)-4-pyridin-2-yl-4,5-dihydroimidazo[1,5,4-de][1,4]benzoxazin-2-yl]azetidin-3-yl}-2-methylpropanamide]: the pIC50 is > 6.00.
Regarding `COCC(=O)NC1CN(c2nc3ccc(-c4c(C)noc4C)c4c3n2[C@@H](c2ccccn2)CO4)C1` [Example 234, N-{1-[(4S)-7-(3,5-dimethylisoxazol-4-yl)-4-pyridin-2-yl-4,5-dihydroimidazo[1,5,4-de][1,4]benzoxazin-2-yl]azetidin-3-yl}-2-methoxyacetamide], the pIC50 is > 6.00.
Same read-out and setting: then `Cc1noc(C)c1-c1ccc2nc(N3CC(NC(=O)C4CC4)C3)n3c2c1OC[C@@H]3c1ccccn1` [Example 235, N-{1-[(4S)-7-(3,5-dimethylisoxazol-4-yl)-4-pyridin-2-yl-4,5-dihydroimidazo[1,5,4-de][1,4]benzoxazin-2-yl]azetidin-3-yl}cyclopropanecarboxamide], with > 6.00; and `Cc1noc(C)c1-c1ccc2nc(N3CC(NC(=O)C4CCC4)C3)n3c2c1OC[C@@H]3c1ccccn1` [Example 236, N-{1-[(4S)-7-(3,5-dimethylisoxazol-4-yl)-4-pyridin-2-yl-4,5-dihydroimidazo[1,5,4-de][1,4]benzoxazin-2-yl]azetidin-3-yl}cyclobutanecarboxamide], with > 6.00.
For the compound `Cc1noc(C)c1-c1ccc2nc(N3CC(NS(C)(=O)=O)C3)n3c2c1OC[C@@H]3c1ccccn1` [Example 237, N-{1-[(4S)-7-(3,5-dimethylisoxazol-4-yl)-4-pyridin-2-yl-4,5-dihydroimidazo[1,5,4-de][1,4]benzoxazin-2-yl]azetidin-3-yl}methanesulfonamide], the pIC50 was > 6.00.
Turning to `CCS(=O)(=O)NC1CN(c2nc3ccc(-c4c(C)noc4C)c4c3n2[C@@H](c2ccccn2)CO4)C1` [Example 238, N-{1-[(4S)-7-(3,5-dimethylisoxazol-4-yl)-4-pyridin-2-yl-4,5-dihydroimidazo[1,5,4-de][1,4]benzoxazin-2-yl]azetidin-3-yl}ethanesulfonamide], the pIC50 was > 6.00.
For the compound `Cc1noc(C)c1-c1ccc2nc(N3CC(NS(=O)(=O)C(C)C)C3)n3c2c1OC[C@@H]3c1ccccn1` [Example 239, N-{1-[(4S)-7-(3,5-dimethylisoxazol-4-yl)-4-pyridin-2-yl-4,5-dihydroimidazo[1,5,4-de][1,4]benzoxazin-2-yl]azetidin-3-yl}propane-2-sulfonamide], the pIC50 was > 6.00.
Turning to `Cc1noc(C)c1-c1ccc2nc(N3CCC(NS(C)(=O)=O)CC3)n3c2c1OC[C@@H]3c1ccccn1` [Example 240, N-{1-[(4S)-7-(3,5-dimethylisoxazol-4-yl)-4-pyridin-2-yl-4,5-dihydroimidazo[1,5,4-de][1,4]benzoxazin-2-yl]piperidin-4-yl}methanesulfonamide], the pIC50 was > 6.00.
On to `COCC(=O)NC1CCN(c2nc3ccc(-c4c(C)noc4C)c4c3n2[C@@H](c2ccccn2)CO4)CC1` [Example 241, N-{1-[(4S)-7-(3,5-dimethylisoxazol-4-yl)-4-pyridin-2-yl-4,5-dihydroimidazo[1,5,4-de][1,4]benzoxazin-2-yl]piperidin-4-yl}-2-methoxyacetamide], for which the pIC50 is > 6.00.
Regarding `Cc1noc(C)c1-c1ccc2nc(N3CCC(NC(=O)C(F)(F)F)CC3)n3c2c1OC[C@@H]3c1ccccn1` [Example 242, N-{1-[(4S)-7-(3,5-dimethylisoxazol-4-yl)-4-pyridin-2-yl-4,5-dihydroimidazo[1,5,4-de][1,4]benzoxazin-2-yl]piperidin-4-yl}-2,2,2-trifluoroacetamide], the pIC50 was > 6.00.
`CCC(=O)NC1CCN(c2nc3ccc(-c4c(C)noc4C)c4c3n2[C@@H](c2ccccn2)CO4)CC1` [Example 243, N-{1-[(4S)-7-(3,5-dimethylisoxazol-4-yl)-4-pyridin-2-yl-4,5-dihydroimidazo[1,5,4-de][1,4]benzoxazin-2-yl]piperidin-4-yl}propanamide]: the pIC50 was > 6.00.
Take `Cc1noc(C)c1-c1ccc2nc(N3CCC(NC(=O)C(C)C)CC3)n3c2c1OCC3c1ccccn1` (centres unmarked) [Example 244]: the pIC50 was > 6.00.
Consider `CCC(=O)N1CCCN(c2nc3ccc(-c4c(C)noc4C)c4c3n2[C@@H](c2ccccn2)CO4)CC1` [Example 246, (4S)-7-(3,5-dimethylisoxazol-4-yl)-2-(4-propionyl-1,4-diazepan-1-yl)-4-pyridin-2-yl-4,5-dihydroimidazo[1,5,4-de][1,4]benzoxazine], for which the pIC50 was > 6.00.
On to `CCS(=O)(=O)N1CCCN(c2nc3ccc(-c4c(C)noc4C)c4c3n2[C@@H](c2ccccn2)CO4)CC1` [Example 248, (4S)-7-(3,5-dimethylisoxazol-4-yl)-2-[4-(ethylsulfonyl)-1,4-diazepan-1-yl]-4-pyridin-2-yl-4,5-dihydroimidazo[1,5,4-de][1,4]benzoxazine], for which the pIC50 is > 6.00.
Consider `CNC(=O)[C@@H]1CCN(c2nc3ccc(-c4c(C)noc4C)c4c3n2[C@@H](c2ccccn2)CO4)C1` [Example 249, (3R)-1-[(4S)-7-(3,5-dimethylisoxazol-4-yl)-4-pyridin-2-yl-4,5-dihydroimidazo[1,5,4-de][1,4]benzoxazin-2-yl]-N-methylpyrrolidine-3-carboxamide], for which the pIC50 is > 6.00.
Regarding `CCNC(=O)[C@@H]1CCN(c2nc3ccc(-c4c(C)noc4C)c4c3n2[C@@H](c2ccccn2)CO4)C1` [Example 250, (3R)-1-[(4S)-7-(3,5-dimethylisoxazol-4-yl)-4-pyridin-2-yl-4,5-dihydroimidazo[1,5,4-de][1,4]benzoxazin-2-yl]-N-ethylpyrrolidine-3-carboxamide], the pIC50 was > 6.00.
`Cc1noc(C)c1-c1ccc2nc(N3CC[C@@H](C(=O)NC4CC4)C3)n3c2c1OC[C@@H]3c1ccccn1` [Example 251, (3R)-N-cyclopropyl-1-[(4S)-7-(3,5-dimethylisoxazol-4-yl)-4-pyridin-2-yl-4,5-dihydroimidazo[1,5,4-de][1,4]benzoxazin-2-yl]pyrrolidine-3-carboxamide]: the pIC50 is > 6.00.
For the compound `Cc1noc(C)c1-c1cc(CNC(C)C)c2[nH]c(=O)n3c2c1OCC3c1ccccn1` (centres unmarked) [Example 253, 7-(3,5-Dimethylisoxazol-4-yl)-9-[(isopropylamino)methyl]-4-pyridin-2-yl-4,5-dihydroimidazo[1,5,4-de][1,4]benzoxazin-2(1H)-one], the pIC50 is 5.00 to 6.00.
For the compound `Cc1noc(C)c1-c1cc(CO)c2[nH]c(=O)n3c2c1OCC3c1ccccn1` (centres unmarked) [Example 254, 7-(3,5-Dimethylisoxazol-4-yl)-9-(hydroxymethyl)-4-pyridin-2-yl-4,5-dihydroimidazo[1,5,4-de][1,4]benzoxazin-2(1H)-one], the pIC50 was > 6.00.
With `Cc1noc(C)c1-c1ccc2[nH]c(=S)n3c2c1OCC3c1ccccn1` (centres unmarked) [Example 255, 7-(3,5-Dimethylisoxazol-4-yl)-4-pyridin-2-yl-4,5-dihydroimidazo[1,5,4-de][1,4]benzoxazine-2(1H)-thione], the pIC50 was > 6.00.
Regarding `Cc1noc(C)c1-c1cc(-c2cn[nH]c2)c2[nH]c(=O)n3c2c1OCC3c1ccccn1` (centres unmarked) [Example 256, 7-(3,5-dimethylisoxazol-4-yl)-9-(1H-pyrazol-4-yl)-4-pyridin-2-yl-4,5-dihydroimidazo[1,5,4-de][1,4]benzoxazin-2(1H)-one], the pIC50 is > 6.00.
Turning to `Cc1noc(C)c1-c1cc(-c2cn[nH]c2C)c2[nH]c(=O)n3c2c1OCC3c1ccccn1` (centres unmarked) [Example 257, 7-(3,5-dimethylisoxazol-4-yl)-9-(3-methyl-1H-pyrazol-4-yl)-4-pyridin-2-yl-4,5-dihydroimidazo[1,5,4-de][1,4]benzoxazin-2(1H)-one], the pIC50 is > 6.00.
On the same count and under the same terms, then `Cc1noc(C)c1-c1cc(-c2ccnc(O)c2)c2[nH]c(=O)n3c2c1OC[C@@H]3c1ccccn1` [Example 260, (4S)-7-(3,5-dimethylisoxazol-4-yl)-9-(2-hydroxypyridin-4-yl)-4-pyridin-2-yl-4,5-dihydroimidazo[1,5,4-de][1,4]benzoxazin-2(1H)-one], with 5.00 to 6.00; and `Cc1noc(C)c1-c1cc(CNc2ccccc2)c2[nH]c(=O)n3c2c1OCC3c1ccccn1` (centres unmarked) [Example 262, 9-(anilinomethyl)-7-(3,5-dimethylisoxazol-4-yl)-4-pyridin-2-yl-4,5-dihydroimidazo[1,5,4-de][1,4]benzoxazin-2(1H)-one], with > 6.00.
Consider `COc1ccc(CNCc2cc(-c3c(C)noc3C)c3c4c2[nH]c(=O)n4C(c2ccccn2)CO3)cc1` (centres unmarked) [Example 263, 7-(3,5-dimethylisoxazol-4-yl)-9-{[(4-methoxybenzyl)amino]methyl}-4-pyridin-2-yl-4,5-dihydroimidazo[1,5,4-de][1,4]benzoxazin-2(1H)-one], for which the pIC50 was > 6.00.
In the case of `Cc1noc(C)c1-c1cc(C(O)C(C)C)c2[nH]c(=O)n3c2c1OCC3c1ccccn1` (centres unmarked) [Example 264, 7-(3,5-dimethylisoxazol-4-yl)-9-(1-hydroxy-2-methylpropyl)-4-pyridin-2-yl-4,5-dihydroimidazo[1,5,4-de][1,4]benzoxazin-2(1H)-one], the pIC50 was > 6.00.

Staying with this test, now noted: Homo sapiens, KMS-12-BM, 72 h, 3 days, Cell Titer-GLO, read-out: KMS cellular IC50.
`Cc1noc(C)c1-c1cc(-c2ccc(O)nc2)c2[nH]c(=O)n3c2c1OC[C@@H]3c1ccccn1` [Example 259, (4S)-7-(3,5-dimethylisoxazol-4-yl)-9-(6-hydroxypyridin-3-yl)-4-pyridin-2-yl-4,5-dihydroimidazo[1,5,4-de][1,4]benzoxazin-2(1H)-one]: the pIC50 was 5.00 to 6.00.
On the same count and under the same terms, then `Cc1noc(C)c1-c1cc(F)c2[nH]c(=O)n3c2c1OCC3c1ccccn1` (centres unmarked) [Example 265B, 7-(3,5-dimethylisoxazol-4-yl)-9-fluoro-4-pyridin-2-yl-4,5-dihydroimidazo[1,5,4-de][1,4]benzoxazin-2(1H)-one], with > 6.00.
